# In US12110523B2, “Reagents and methods for esterification” (Wisconsin Alumni Research Foundation, priority 2015, dated 2024):
# Tests used:
# CHO K1 cells = experiment: Internalization of esterified GFP by CHO K1 cells (flow cytometry, confocal microscopy); format: cell-based, Chinese hamster; details: 15 μM GFP, 37° C., 2 h, versus unlabeled GFP
# Source text: FIG. 8 is a graph showing quantification of internalization of labeled versus unlabeled GFP by CHO K1 cells using flow cytometry measuring median fluorescence intensity. Single cells were sorted based on forward scatter-side scatter measurements, and live cells were sorted using 7AAD (7-amino-actinomycin D) stain.
# FIGS. 9A-C illustrate microscopy images of uptake of esterified GFP (green) by CHO K1 cells. FIG. 9A: Not esterified. FIG. 9B: Esterified with α-diazo-4-methylphenyl-N-propargylacetamide. FIG. 9C: Esterified with α-diazo-4-methylphenyl-N,N-dimethylacetamide. Cell nuclei are stained with Hoechst 33342 (blue).
# Chinese hamster ovary (CHO) K1 cells were incubated at 37° C. for 2 h in F-12K medium (which was supplemented with penicillin/streptomycin) containing either unlabeled or labeled GFP (15 μM). […] Individual cells were imaged by confocal microscopy for two of the diazo compounds.
# RNase A = target: T1, RNase A (Bos taurus, UniProt P61823); details: at 10 eq; of eleven carboxylates; cited from earlier work
# T1 sequence (P61823 27-150): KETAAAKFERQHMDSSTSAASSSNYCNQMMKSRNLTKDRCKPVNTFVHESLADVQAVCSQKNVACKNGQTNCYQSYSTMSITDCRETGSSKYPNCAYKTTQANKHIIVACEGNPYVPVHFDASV
# [1] = acetonitrile and acetonitrile/aqueous buffer (3:1 v/v); cited from earlier work
# [2] = measured in dimethylsulfoxide; cited from earlier work
SMILES,uptake of GFP esterified with the diazo compound into CHO K1 cells (CHO K1 cells),formation of the desired ester with carboxylic acids [1],further results
"CNC(=O)C(=[N+]=[N-])c1ccc(C)cc1 [Diazo compound 11, α-diazo-4-methylphenyl-N-methylacetamide]",enhanced,–,–
[N-]=[N+]=C1c2ccccc2-c2ccccc21 [9-diazofluorene],–,gave the desired ester in aqueous medium,average number of carboxylates labeled in RNase A (RNase A): three
"Cc1ccc(C(=[N+]=[N-])C(=O)N(C)C)cc1 [Diazo compound 12, α-diazo-4-methylphenyl-N,N-dimethylacetamide]",enhanced,–,–
CCOC(=O)CC(=O)OCC [diethylmalonate],–,–,pKa [2]: 16.4
CCOC(=O)C(=[N+]=[N-])C(=O)OCC [diethyl 2-diazomalonate],–,unreactive,–
